Entries after “also recorded” stand apart in the source; their conditions may differ. Where two headings read alike, the source gives them in different places.
Columns and labels:
[1] = system: edema (carrageenin, hind paw); experiment: Anti-inflammatory activity: carrageenin hind paw edema in rats, oral administration; format: in vivo, male Donryu rats; details: for inhibition in vivo at 5 mg/kg / inhibition in vivo at 20 mg/kg / inhibition in vivo at 50 mg/kg / ED40 / inhibition in vivo at 1 mg/kg / inhibition in vivo at 10 mg/kg / inhibition in vivo at 25 mg/kg / inhibition in vivo at 100 mg/kg: Rattus norvegicus; for inhibition in vivo at 5 mg/kg: 5 mg/kg oral; for inhibition in vivo at 5 mg/kg / inhibition in vivo at 20 mg/kg / inhibition in vivo at 50 mg/kg / inhibition in vivo at 1 mg/kg / inhibition in vivo at 10 mg/kg / inhibition in vivo at 25 mg/kg / inhibition in vivo at 100 mg/kg: read-out: Percent edema inhibition; for inhibition in vivo at 20 mg/kg: 20 mg/kg oral; for inhibition in vivo at 50 mg/kg: 50 mg/kg oral; for ED40: dose causing 40% inhibition, dose-response line, read-out: ED40 value; for ED40 / anti-inflammatory activity (in words): oral; for anti-inflammatory activity (in words): carrageenin edema, rat; for inhibition in vivo at 1 mg/kg: 1 mg/kg oral; for inhibition in vivo at 10 mg/kg: 10 mg/kg oral; for inhibition in vivo at 25 mg/kg: 25 mg/kg oral; for inhibition in vivo at 100 mg/kg: 100 mg/kg oral
Experimental: (§1) The anti-inflammatory activity, analgesic activity and ulcerogenic activity of the novel dibenzo[a,d]cycloheptene derivatives of this invention were tested by the following methods.
Each of test compounds was orally administered to groups of male Donryu rats weighing 130 to 150 g (8 to 10 rats per group), and one hour later, 0.1 ml of a 1% carrageenin solution was injected subcutaneously into the hind paw of each rat. After injection of carrageenin, the volume of the paw was measured at predetermined periods, and the percent inhibition against a control group was calculated.

[2] = system: writhing syndromes (acetic acid); experiment: Analgesic activity: acetic acid writhing in mice; format: in vivo, male ICR mice
Experimental: as §1
Using male ICR mice weighing 25 to 30 g (10 mice per group), there was measured the number of writhing syndromes induced when a 1% solution of acetic acid was intraperitoneally injected at a dose of 10 ml/kg. The percent inhibition against a control group was calculated.

in vivo = details: rat, in vivo, po
Experimental: as §1
(§2) Sixteen hours later, the rats were sacrificed under ether anesthesia.
(§3) *Calculated by the Adami's method.
(§4) **Calculated by the LitchfieldWilcoxon's method. The parenthesized values
(§5) show 95% confidence limits.

gastric wall = experiment: in vivo; details: rat, in vivo, po
Experimental: as §1, §2, §3, §4, §5

In the case of `COC1=Cc2ccccc2Cc2ccc(C(C)C(=O)O)cc21` (stereo not drawn) [Ih, 2-(11-methoxy-5H-dibenzo[a,d]cyclohepten-2-yl)propionic acid], the inhibition in vivo at 5 mg/kg ([1]; 1 hour after carrageenin) was 18.4%, the inhibition in vivo at 5 mg/kg ([1]; 2 hours after carrageenin) was 24.7% and the inhibition in vivo at 5 mg/kg ([1]; 3 hours after carrageenin) was 12%. For the same compound, the inhibition in vivo at 5 mg/kg ([1]; 4 hours after carrageenin) was 12.6%, the inhibition in vivo at 20 mg/kg ([1]; 1 hour after carrageenin) was 28.1% and the inhibition in vivo at 20 mg/kg ([1]; 2 hours after carrageenin) was 22.9%. The inhibition in vivo at 20 mg/kg ([1]; 3 hours after carrageenin) was 26.8%, the inhibition in vivo at 20 mg/kg ([1]; 4 hours after carrageenin) was 26.8% and the inhibition in vivo at 50 mg/kg ([1]; 1 hour after carrageenin) was 35.6%. The inhibition in vivo at 50 mg/kg ([1]; 2 hours after carrageenin) was 32.9%, the inhibition in vivo at 50 mg/kg ([1]; 3 hours after carrageenin) was 35.4% and the inhibition in vivo at 50 mg/kg ([1]; 4 hours after carrageenin) was 35.7%. For the same compound, the ED40 ([1]; 3 hours after carrageenin) was 77 mg/kg and the “anti-inflammatory activity (in words)” value [1] was “excellent anti-inflammatory activity; also recorded: evidently show anti-inflammatory activity although their activity is weaker than that of indomethacin”.

In the case of `CC(C(=O)O)c1ccc2c(c1)C(=O)Cc1ccccc1C2` (stereo not drawn) [compound Ii, 2-(10,11-dihydro-11-oxo-5H-dibenzo[a,d]cyclohepten-2-yl)propionic acid], the inhibition in vivo at 1 mg/kg ([1]; 1 hour after carrageenin) was 34.4%, the inhibition in vivo at 1 mg/kg ([1]; 2 hours after carrageenin) was 30.6% and the inhibition in vivo at 1 mg/kg ([1]; 3 hours after carrageenin) was 32.4%. For the same compound, the inhibition in vivo at 1 mg/kg ([1]; 4 hours after carrageenin) was 32.4%, the inhibition in vivo at 5 mg/kg ([1]; 1 hour after carrageenin) was 35.8% and the inhibition in vivo at 5 mg/kg ([1]; 2 hours after carrageenin) was 54%. It also gave an inhibition in vivo at 5 mg/kg ([1]; 3 hours after carrageenin) of 51.7%, an inhibition in vivo at 5 mg/kg ([1]; 4 hours after carrageenin) of 50.9% and an inhibition in vivo at 10 mg/kg ([1]; 1 hour after carrageenin) of 50%. The inhibition in vivo at 10 mg/kg ([1]; 2 hours after carrageenin) was 55%, the inhibition in vivo at 10 mg/kg ([1]; 3 hours after carrageenin) was 54.6% and the inhibition in vivo at 10 mg/kg ([1]; 4 hours after carrageenin) was 54.6%. For the same compound, the ED40 ([1]; 3 hours after carrageenin) was 1.9 mg/kg, the “anti-inflammatory activity (in words)” value [1] was “excellent anti-inflammatory activity; also recorded: stronger than that of indomethacin; also recorded: very potent anti-inflammatory activity” and the “Inhibition (writhing)” value ([2]; 10.0 mg/kg) was 14.0%. For the same compound, the “Number of writhing syndromes (Mean ± SE)” value ([2]; 10.0 mg/kg) was 19.7 ± 1.77, the “Inhibition (writhing)” value ([2]; 20.0 mg/kg) was 33.6% and the “Number of writhing syndromes (Mean ± SE)” value ([2]; 20.0 mg/kg) was 15.2 ± 1.28. The “Inhibition (writhing)” value ([2]; 40.0 mg/kg) was 45.4%, the “Number of writhing syndromes (Mean ± SE)” value ([2]; 40.0 mg/kg) was 12.5 ± 1.65 and the “Inhibition (writhing)” value ([2]; 80.0 mg/kg) was 57.6%. For the same compound, the “Number of writhing syndromes (Mean ± SE)” value ([2]; 80.0 mg/kg) was 9.7 ± 1.93, the ED50 ([2]; Mus musculus, po, dose causing 50% inhibition of writhing, dose-response line, read-out: ED50 value) was 52 mg/kg and the “ED50 value relative to that of indomethacin” value ([2]; writhing, mouse) was “ten times”. For the same compound, the “analgesic activity (in words)” value ([2]; writhing, mouse) was “weak analgesic activity”, the “analgesic activity relative to indomethacin” value ([2]; writhing, mouse) was “one-tenth of that of indomethacin” and the TD50 at 16 h (in vivo) was 15 mg/kg. The selectivity ratio (in vivo) was 7.9.

Work on `O=C(O)Cc1ccc2c(c1)CC(=O)c1cc(Cl)ccc1C2` [Ie, 8-chloro-10,11-dihydro-10-oxo-5H-dibenzo[a,d]cycloheptene-2-acetic acid] yielded an inhibition in vivo at 25 mg/kg ([1]; 1 hour after carrageenin) of 4.5%, an inhibition in vivo at 25 mg/kg ([1]; 2 hours after carrageenin) of 8.6% and an inhibition in vivo at 25 mg/kg ([1]; 3 hours after carrageenin) of 3%. It also gave an inhibition in vivo at 25 mg/kg ([1]; 4 hours after carrageenin) of 2.3%, an inhibition in vivo at 100 mg/kg ([1]; 1 hour after carrageenin) of -0.7% and an inhibition in vivo at 100 mg/kg ([1]; 2 hours after carrageenin) of 1.3%. It also gave an inhibition in vivo at 100 mg/kg ([1]; 3 hours after carrageenin) of -4.2% and an inhibition in vivo at 100 mg/kg ([1]; 4 hours after carrageenin) of -1.8%.

Work on `O=C(O)Cc1ccc2c(c1)C(=O)Cc1cc(F)ccc1C2` [Ib, 8-fluoro-10,11-dihydro-11-oxo-5H-dibenzo[a,d]cycloheptene-2-acetic acid] yielded an inhibition in vivo at 25 mg/kg ([1]; 1 hour after carrageenin) of 32.4%, an inhibition in vivo at 25 mg/kg ([1]; 2 hours after carrageenin) of 45.3% and an inhibition in vivo at 25 mg/kg ([1]; 3 hours after carrageenin) of 43.4%. The inhibition in vivo at 25 mg/kg ([1]; 4 hours after carrageenin) was 41.9%, the inhibition in vivo at 100 mg/kg ([1]; 1 hour after carrageenin) was 44.1% and the inhibition in vivo at 100 mg/kg ([1]; 2 hours after carrageenin) was 57.9%. It also gave an inhibition in vivo at 100 mg/kg ([1]; 3 hours after carrageenin) of 52.6%, an inhibition in vivo at 100 mg/kg ([1]; 4 hours after carrageenin) of 53% and an ED40 ([1]; 3 hours after carrageenin) of 15 mg/kg. For the same compound, the “anti-inflammatory activity (in words)” value [1] was “excellent anti-inflammatory activity; also recorded: evidently show anti-inflammatory activity although their activity is weaker than that of indomethacin” and the “ulcerogenic activity (in words)” value (gastric wall) was “much weaker than that of indomethacin”.

`O=C(O)Cc1ccc2c(c1)Cc1ccccc1C(=O)C2` [If, 10,11-dihydro-10-oxo-5H-dibenzo[a,d]cycloheptene-3-acetic acid] gave an inhibition in vivo at 25 mg/kg ([1]; 1 hour after carrageenin) of -22.6%, an inhibition in vivo at 25 mg/kg ([1]; 2 hours after carrageenin) of -16.8% and an inhibition in vivo at 25 mg/kg ([1]; 3 hours after carrageenin) of -12.3%. The inhibition in vivo at 25 mg/kg ([1]; 4 hours after carrageenin) was -8.7%, the inhibition in vivo at 100 mg/kg ([1]; 1 hour after carrageenin) was -23.5% and the inhibition in vivo at 100 mg/kg ([1]; 2 hours after carrageenin) was -21.4%. For the same compound, the inhibition in vivo at 100 mg/kg ([1]; 3 hours after carrageenin) was -9.1% and the inhibition in vivo at 100 mg/kg ([1]; 4 hours after carrageenin) was -5.5%.

For `COC1=Cc2ccccc2Cc2ccc(CC(=O)O)cc21` [Ig, 11-methoxy-5H-dibenzo[a,d]cycloheptene-2-acetic acid], the inhibition in vivo at 100 mg/kg ([1]; 1 hour after carrageenin) was 25.5%, the inhibition in vivo at 100 mg/kg ([1]; 2 hours after carrageenin) was 40.6% and the inhibition in vivo at 100 mg/kg ([1]; 3 hours after carrageenin) was 42.6%. The inhibition in vivo at 100 mg/kg ([1]; 4 hours after carrageenin) was 37.1%.

`O=C(O)Cc1ccc2c(c1)Cc1ccccc1CC2=O` [Ic, 10,11-dihydro-11-oxo-5H-dibenzo[a,d]cycloheptene-3-acetic acid] gave an inhibition in vivo at 25 mg/kg ([1]; 1 hour after carrageenin) of 32.8%, an inhibition in vivo at 25 mg/kg ([1]; 2 hours after carrageenin) of 29.4% and an inhibition in vivo at 25 mg/kg ([1]; 3 hours after carrageenin) of 25.5%. For the same compound, the inhibition in vivo at 25 mg/kg ([1]; 4 hours after carrageenin) was 24%, the inhibition in vivo at 100 mg/kg ([1]; 1 hour after carrageenin) was 51.4% and the inhibition in vivo at 100 mg/kg ([1]; 2 hours after carrageenin) was 44.7%. It also gave an inhibition in vivo at 100 mg/kg ([1]; 3 hours after carrageenin) of 40.7%, an inhibition in vivo at 100 mg/kg ([1]; 4 hours after carrageenin) of 39.3% and an ED40 ([1]; 3 hours after carrageenin) of 94 mg/kg. The “anti-inflammatory activity (in words)” value [1] was “excellent anti-inflammatory activity; also recorded: evidently show anti-inflammatory activity although their activity is weaker than that of indomethacin”.

With `O=C(O)Cc1ccc2c(c1)CC(=O)c1ccccc1C2` [Id, 10,11-dihydro-10-oxo-5H-dibenzo[a,d]cycloheptene-2-acetic acid] the inhibition in vivo at 25 mg/kg ([1]; 1 hour after carrageenin) was 36%, the inhibition in vivo at 25 mg/kg ([1]; 2 hours after carrageenin) was 36% and the inhibition in vivo at 25 mg/kg ([1]; 3 hours after carrageenin) was 21.4%. The inhibition in vivo at 25 mg/kg ([1]; 4 hours after carrageenin) was 18.4%, the inhibition in vivo at 100 mg/kg ([1]; 1 hour after carrageenin) was 44.6% and the inhibition in vivo at 100 mg/kg ([1]; 2 hours after carrageenin) was 39%. The inhibition in vivo at 100 mg/kg ([1]; 3 hours after carrageenin) was 28.1% and the inhibition in vivo at 100 mg/kg ([1]; 4 hours after carrageenin) was 21.4%.

In the case of `O=C(O)Cc1ccc2c(c1)C(=O)Cc1ccccc1C2` [Ia, 10,11-dihydro-11-oxo-5H-dibenzo[a,d]cycloheptene-2-acetic acid], the inhibition in vivo at 25 mg/kg ([1]; 1 hour after carrageenin) was 28.2%, the inhibition in vivo at 25 mg/kg ([1]; 2 hours after carrageenin) was 41.8% and the inhibition in vivo at 25 mg/kg ([1]; 3 hours after carrageenin) was 44.5%. It also gave an inhibition in vivo at 25 mg/kg ([1]; 4 hours after carrageenin) of 41%, an inhibition in vivo at 100 mg/kg ([1]; 1 hour after carrageenin) of 33% and an inhibition in vivo at 100 mg/kg ([1]; 2 hours after carrageenin) of 50%. It also gave an inhibition in vivo at 100 mg/kg ([1]; 3 hours after carrageenin) of 53.7%, an inhibition in vivo at 100 mg/kg ([1]; 4 hours after carrageenin) of 52.2% and an ED40 ([1]; 3 hours after carrageenin) of 13 mg/kg. For the same compound, the “anti-inflammatory activity (in words)” value [1] was “excellent anti-inflammatory activity; also recorded: evidently show anti-inflammatory activity although their activity is weaker than that of indomethacin” and the “ulcerogenic activity (in words)” value (gastric wall) was “much weaker than that of indomethacin”.
